From patent US9265774B2, “Methods, compounds and pharmaceutical compositions for treating anxiety and mood disorders” (New York University, priority 2011, dated 2016)

How the values were obtained:
[1] = test system: immobility in tail suspension test; test: Tail suspension test (TST); type: in vivo, mice
Protocol: (§1) In the RFS study, mice were subjected to 4 daily 15 min swims as described above and were injected i.p. with either vehicle or dp6FNE (3 mg/kg) 15 min prior to the 5th swim. In the TST study, animals were injected similarly before a 6 min test. […] The animals were anesthetized and perfused for immuno-histochemistry 70 min after the start of the swim or tail suspension. Brains were processed as described previously for double-label immunofluorescent Fos/tyrosine hydroxylase staining of all sections through the LC and for single-label Fos staining through the full PVH (Stone et al., Brain Res (2009) 1291: 21-31).
To determine if dp6FNE was active in a more traditional test of antidepressant activity, it was given as above 15 min prior to a tail suspension test.
(§2) The first test involves an acute stress-induced model of depression (Steru, et al., Psychopharmacology 1985; 85: 367-370) whereas the second, a more prolonged, chronic depression that is more akin to chronic human depression (Stone, et al., Pharmacol Biochem Behav 2008; 91: 190-195).

[2] = test system: Fos expression in the PVH; test: Fos expression in the PVH during the RFS model; type: in vivo, mice; conditions: dp6FNE 3 mg/kg i.p. 15 min prior to the 5th swim, with prazosin 0.2 mg/kg; swum animals, versus vehicle
Protocol: as §1, with “21-31). […] In the tail suspended mice the analogous reductions were 53.5±7.2% (LC) and 36.7±3.1 (PVH). […] These findings thus indicate that a dose of […] dp6FNE that has preferential inhibitory effects on the LC during depression exists.” for “21-31).”

[3] = test system: repeated open-space swim model; test: Repeated open-space (forced) swim test; type: in vivo, mice; conditions: acute i.p., dp6FNE at 1, 3 and 10 mg/kg given along with phentolamine 5 mg/kg i.p.
From the text: as §2

[4] = prazosin: at 0.2 mg/kg in mice; cited from earlier work
Fos expression in the LC [5] = test: Fos expression in the LC during the RFS model; type: in vivo, mice; conditions: dp6FNE 3 mg/kg i.p. 15 min prior to the 5th swim, with prazosin 0.2 mg/kg; swum animals, versus vehicle
Protocol: as §1, with “21-31). […] In the tail suspended mice the analogous reductions were 53.5±7.2% (LC) and 36.7±3.1 (PVH). […] These findings thus indicate that a dose of […] dp6FNE that has preferential inhibitory effects on the LC during depression exists.” for “21-31).”

[6] = test system: home cage exploration in handling-stressed mice; test: Home cage activity after handling and injection stress; type: in vivo; conditions: i.p.; dp6FNE (1 mg/kg) in the presence of phentolamine; cirazoline (0.1 mg/kg)
Protocol: FIG. 15 depicts the effect of acute i.p. dp6FNE (1 mg/kg) or cirazoline (0.1 mg/kg), (N=1), on home cage activity in terms of rearing and ambulation, Veh (N=12).
6FNE has a more rapid and/or greater antidepressant effect than either of these agonists because 6FNE is the only known selective α-agonist that has full efficacy at all brain α-adrenoceptors and 6FNE works within minutes (Stone, et al. 2011) whereas cirazoline was given to mice over several months prior to testing in one model (forced swim test) in the above experiment by Doze et al, 2009. […] (Stone, E A, Lin Y, Quartermain, D, Unpublished results)
It is known that peripheral administration of α1-agonists without phentolamine impairs exploratory behavior in the open field (Yang, et al., J Pharmacol exp Ther 1990; 255: 1064-1070).

Fos expression in the LC [7] = test: Fos expression in the LC in the tail suspension test; type: in vivo, mice; conditions: dp6FNE 3 mg/kg i.p. before a 6 min tail suspension test, with prazosin 0.2 mg/kg
Protocol: as §1, with “21-31). […] In the tail suspended mice the analogous reductions were 53.5±7.2% (LC) and 36.7±3.1 (PVH). […] These findings thus indicate that a dose of […] dp6FNE that has preferential inhibitory effects on the LC during depression exists.” for “21-31).”

[8] = test system: endotoxin-induced inhibition of the female urine sniffing test (FUST); test: Endotoxin (LPS)-induced anhedonia, female urine sniffing test (FUST); type: in vivo, mice
Protocol: To determine if dp6FNE would also be active in an anhedonia-based model of depression, the compound was tested for its ability to reverse an endotoxin-induced inhibition of the female urine sniffing test (FUST), a non-nutritive hedonic behavior, whose impairment by stress was recently validated as a model of depression in this species (Malkesman et al., Biol Psychiatry (2010) 67: 864-871) A non-nutritive rewarding behavior was used because dp6FNE, like most other acutely administered antidepressants, has initial anorexic effects that inhibit the consumption of sweet solutions (Currie et al., Brain Res (1998) 800: 62-68). […] The repeated forced swim (RFS) model could not be used for this test because it is not a severe enough stress to reliably produce anhedonia in this species (Stone et al., Pharmacol Biochem Behav (2008b) 91: 190-195).
Male mice were trained to sniff estrous urine (verified by vaginal smears) presented on cotton swabs in the home cage over 3 d and were matched on sniffing duration (proximity to the swab in a 3 min test) into control and depression groups. These groups were administered i.p. control solution (H2O) or lipopolysaccharide (LPS), 400 μg/kg, respectively, and were left undisturbed for 24 h, which is necessary for the initial sickness behavior, but not the anhedonia, to subside (Frenois et al., Psychoneuroendocrinology (2007) 32: 516-531).

[9] = test system: CMS reduction of intake of sweetened milk; test: Chronic mild stress (CMS)-anhedonia model, consumption of sweetened milk; type: in vivo; conditions: acute i.p. dp6FNE
[10] = test system: locomotor behavior in an open field; test: Open field locomotor behavior after ivt. 6FNE or i.p. dp6FNE versus amphetamine; type: in vivo, mice; conditions: 6FNE ivt. or dp6FNE i.p.
Protocol: 6FNE and dp6FNe were tested for their effects on motor activity by measuring locomotor behavior in an open field after either ivt. (6FNE) or i.p. injection (dp6fNE) in mice. These mice were compared to animals that were either non handled or received either a vehicle ivt injection or an i.p. injection of the stimulant, amphetamine (5 mg/kg). The results are shown in FIG. 6 and in (Stone, Lin Y, Sarfraz Y, and Quartermain D, 2011). […] Furthermore, the increase in activity after 6FNE was minor in comparison with the bona fide stimulant, amphetamine which produced a 10 fold increase. The small increase over the vehicle group therefore appears to be the result of a reduction of the stress caused by the handling and restraint for the ivt. injection which is in agreement with the reduced activation of brain stress circuits discussed above. This interpretation was supported by an examination of the time in the center or risky area of the field spent by the various groups. […] A slight reduction in motor behavior at the low doses (0.1-0.3 mg/kg) were, however, observed.

CC(C)(C)C(=O)Oc1cc(F)c(C(O)CN)cc1OC(=O)C(C)(C)C (stereo not drawn) [dp6FNE, dipivalyl-6-fluoronorepinephrine]
immobility in tail suspension test ([1]; 3 mg/kg i.p. with prazosin 0.2 mg/kg, 15 min prior to test): significant reduction of immobility | antidepressant action in the tail suspension test ([1]; i.p. at doses of 1, 3 and 10 mg/kg, given along with phentolamine 5 mg/kg i.p.): significant antidepressant action | reduction in gene expression (Fos) in the PVH [2]: 13.0±20.1% | acute effect in the repeated open-space swim test [3]: strong effect | acute effect in the repeated open-space swim test ([3]; listed as 6dpFNE): significant antidepressant action | passage of the blood brain barrier [4]: does pass the blood brain barrier | reduction in gene expression (Fos) in the LC (Fos expression in the LC [5]): 33.6±6.8 | behavioral inhibition in the home cage following handling and injection stress [6]: rescue of home cage exploration | reduction in gene expression (Fos) in the LC (Fos expression in the LC [7]): 53.5±7.2% | change of time sniffing, Con vs LPS ([8]; dp6FNE (1 mg/kg) i.p. with prazosin 0.2 mg/kg, 15 min before test, 24 h after LPS 400 μg/kg): +4.6±1.4% | effect on the FUST in the absence of endotoxin ([8]; dp6FNE i.p. with prazosin 0.2 mg/kg, control (H2O) animals): did not significantly affect the FUST | effect on CMS reduction of sweetened milk intake [9]: eliminates the CMS reduction of intake | effect on food intake (hypophagia) [9]: significant hypophagia | effect on motor activity in the open field [10]: did not produce any stimulation of motor behavior | time in the center of the field [10]: significant increase in the time in the center of the field
